From patent US10590086B2, “Pharmaceutical compound” (IOmet Pharma Ltd., priority 2014, dated 2020) come the findings set out here.

Assay [1] deals with IDO (Homo sapiens, UniProt P14902). The assay is described as follows: SKOV3 kynurenine cell-based assay (IDO induced by IFN-γ). Set-up: IDO expression was induced in the SKOV3 cells by the addition of 500 ng/ml IFN-γ; endogenous in cells; host or cells: SKOV3 (human ovarian adenocarcinoma), induced with IFN-γ. As to conditions: SKOV3 human ovarian adenocarcinoma cells, 500 ng/ml IFN-γ, 48 hours, 500 μM L-tryptophan; read-out: SKOV3 Kynurenine cell based assay pIC50 (converted). On the procedure:
(§1) Exemplary compounds of the invention were prepared, and tested to determine their effect as TDO and/or IDO inhibitors. Two different assays were employed: 1. a cell-based assay for detecting the effect of test compounds on kynurenine production in two different cancer cell types. This assay utilised cancer cells which expressed either TDO or IDO and as such was used as a means of testing compound activity at these two enzymes in a cell-based context. 2. a TDO and IDO biochemical coupled assay which utilised recombinantly produced and purified TDO and IDO enzymes in combination with the enzyme formamidase. This coupled enzyme system allowed conversion of N-formylkynurenine produced by TDO or IDO activity to kynurenine which was then quantified by fluorescence following addition of Erhlich's Reagent The protocols for these are set out below.
(§2) Cell Based Assay for Detection of Kynurenine Produced by TDO and/or IDO
(§3) A172 (human glioblastoma) and SKOV3 (human ovarian adenocarcinoma) cells were seeded in a 96 well plate at 30,000 or 40,000 cells per well respectively in phenol red-free RPMI supplemented with 10% FCS, 2 mM L-glutamine and 500 μM L-tryptophan. IDO expression was induced in the SKOV3 cells by the addition of 500 ng/ml IFN-γ. Cells were incubated at 37° C. with or without the addition of test compound. After 48 hours, the cells were removed by centrifugation and Erhlich's reagent was added to the supernatant. The Erhlich's reagent was incubated for 5 minutes before the absorbance was read at 490 nm.

For assay [2], the target named is TDO (Homo sapiens, UniProt P48775). The assay is described as follows: A172 kynurenine cell-based assay. Further details: This assay utilised cancer cells which expressed either TDO or IDO; endogenous in cells; host or cells: A172 (human glioblastoma). The note with it: A172 human glioblastoma cells, 48 hours, 500 μM L-tryptophan; read-out: A172 Kynurenine cell based assay pIC50 (converted). On the procedure: as §1, §2, §3
Chain of TDO (P48775 whole entry): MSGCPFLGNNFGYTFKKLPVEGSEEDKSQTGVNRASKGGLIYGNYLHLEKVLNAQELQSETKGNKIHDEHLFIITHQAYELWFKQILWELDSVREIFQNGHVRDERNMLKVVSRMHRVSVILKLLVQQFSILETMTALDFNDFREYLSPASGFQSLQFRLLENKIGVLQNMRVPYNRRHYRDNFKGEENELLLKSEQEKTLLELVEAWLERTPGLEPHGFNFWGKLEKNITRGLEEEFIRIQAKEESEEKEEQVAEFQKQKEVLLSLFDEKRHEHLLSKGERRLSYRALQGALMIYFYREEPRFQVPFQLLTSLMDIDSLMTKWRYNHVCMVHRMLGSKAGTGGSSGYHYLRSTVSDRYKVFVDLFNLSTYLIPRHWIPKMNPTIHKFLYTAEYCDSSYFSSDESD

Where only a bound is given, the exact number is not on record here.

Chain of IDO (P14902 whole entry): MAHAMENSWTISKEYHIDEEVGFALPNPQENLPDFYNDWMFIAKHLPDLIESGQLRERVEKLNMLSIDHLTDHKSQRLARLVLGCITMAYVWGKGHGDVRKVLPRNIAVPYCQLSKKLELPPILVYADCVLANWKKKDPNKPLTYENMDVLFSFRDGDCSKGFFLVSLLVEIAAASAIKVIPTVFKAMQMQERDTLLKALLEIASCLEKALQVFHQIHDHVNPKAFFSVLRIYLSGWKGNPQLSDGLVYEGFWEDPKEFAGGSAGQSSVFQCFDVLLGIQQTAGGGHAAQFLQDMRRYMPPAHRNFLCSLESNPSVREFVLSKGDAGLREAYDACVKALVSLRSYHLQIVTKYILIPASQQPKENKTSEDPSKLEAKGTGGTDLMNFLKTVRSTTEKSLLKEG

Turning to `CS(=O)(=O)N1CCN(c2cc(C3CCCC3)cc3[nH]ncc23)CC1` [Compound 131], the IC50 in assay [1] is 32.4 to 100 µM; in assay [2], > 100 µM.

As to `COCCn1ncc2c(OC3CCN(S(C)(=O)=O)CC3)cc(Cl)cc21` [Compound 162], the IC50 in assay [1] is 32.4 to 100 µM; in assay [2], > 100 µM.

Take `CC(O)C(=O)N1CCC(c2cc(Cl)cc3[nH]ncc23)CC1` (centres unmarked) [Compound 177]: the values for the IC50 in assay [1] and in assay [2] were 3.24 to 31.6 µM and < 3.16 µM, respectively.

As to `CC(=O)N1CCN(c2cc(C3CC3)cc3[nH]ncc23)CC1(C)C` [Compound 126], the values for the IC50 in assay [1] and in assay [2] were 3.24 to 31.6 µM and < 3.16 µM, respectively.

In the case of `O=S1(=O)CCC2CN(c3cc(Cl)cc4[nH]ncc34)CCN21` (centres unmarked) [Compound 89], the IC50 in assay [1] is 3.24 to 31.6 µM; in assay [2], < 3.16 µM.

Take `CS(=O)(=O)N1CCC(c2cc(-c3ccccc3)cc3[nH]ncc23)CC1` [Compound 32]: the IC50 in assay [1] is 32.4 to 100 µM; in assay [2] it was 3.24 to 31.6 µM.

Take `O=S(=O)(Cc1ccccc1)N1CCN(c2cc(Cl)cc3[nH]ncc23)CC1` [Compound 56]: the IC50 is 3.24 to 31.6 µM in assay [1] and < 3.16 µM in assay [2].

In the case of `CS(=O)(=O)N1CCN(c2cc(Cl)cc3[nH]ncc23)CC12CC2` [Compound 94], the IC50 is 3.24 to 31.6 µM in assay [1] and < 3.16 µM in assay [2].

Regarding `CC(=O)Nc1cccc2[nH]ncc12` [Compound 6], the IC50 in assay [1] is > 100 µM; in assay [2], 32.4 to 100 µM.

Consider `CS(=O)(=O)N1CCN(c2cc(C3CC3)cc3[nH]ncc23)CC1` [Compound 101], for which the values for the IC50 in assay [1] and in assay [2] were > 100 µM and 3.24 to 31.6 µM, respectively.

As for `CC(C)C(=O)N1CCC(c2cc(Cl)cc3[nH]ncc23)CC1` [Compound 166], the IC50 in assay [1] was 32.4 to 100 µM; in assay [2], < 3.16 µM.

Take `CC(=O)N1CCN(c2cc(C3CCCC3)cc3[nH]ncc23)CC1(C)C` [Compound 149]: the IC50 in assay [1] and in assay [2] was 3.24 to 31.6 µM each time.

Consider `CN(CCNc1cccc2[nH]ncc12)S(C)(=O)=O` [Compound 62], for which the figures for the IC50 in assay [1] and in assay [2] were > 100 µM and 32.4 to 100 µM, respectively.

With `O=S(=O)(Cc1ccccc1)N1CCC(c2cc(Cl)cc3[nH]ncc23)CC1` [Compound 115], the IC50 in assay [1] was 3.24 to 31.6 µM; in assay [2], < 3.16 µM.

`CS(=O)(=O)N1CCN(c2cc(C#N)cc3[nH]ncc23)CC1` [Compound 194]: the IC50 in assay [1] and in assay [2] was 3.24 to 31.6 µM in each case.

On to `CC(=O)N1CCCN(c2cccc3[nH]ncc23)CC1` [Compound 58], for which the IC50 in assay [1] was > 100 µM; in assay [2] it was 3.24 to 31.6 µM.

As for `CC1(C)CC(c2cccc3[nH]ncc23)CCN1S(C)(=O)=O` (centres unmarked) [Compound 187], the IC50 in assay [1] is 32.4 to 100 µM; in assay [2] it was 3.24 to 31.6 µM.

Turning to `CS(=O)(=O)N1CCN(c2cc(Cl)cc3[nH]nc(N)c23)CC1` [Compound 135], the IC50 in assay [1] was 3.24 to 31.6 µM; in assay [2], 32.4 to 100 µM.

Turning to `CS(=O)(=O)N1CCC(c2ccc(Cl)c3[nH]ncc23)CC1` [Compound 42], the IC50 in assay [1] is 3.24 to 31.6 µM; in assay [2], 32.4 to 100 µM.

In the case of `CC1(C)CN(c2cc(C3CC3)cc3[nH]ncc23)CCN1S(C)(=O)=O` [Compound 127], the IC50 is 3.24 to 31.6 µM in assay [1] and < 3.16 µM in assay [2].

Take `CCc1cc(N2CCN(S(C)(=O)=O)C(C)(C)C2)c2cn[nH]c2c1` [Compound 161]: the IC50 in assay [1] and in assay [2] was < 3.16 µM throughout.

For the compound `CC(=O)N1[C@H](C)CN(c2cc(Cl)cc3[nH]ncc23)C[C@H]1C` [Compound 103], the results for the IC50 in assay [1] and in assay [2] were > 100 µM and < 3.16 µM, respectively.

Regarding `CS(=O)(=O)N1CCN(c2cc(Cl)cc3[nH]ncc23)c2ccccc21` [Compound 151], the IC50 in assay [1] is 3.24 to 31.6 µM; in assay [2] it was > 100 µM.

Turning to `CC(C)c1cc(N2CCN(S(C)(=O)=O)C(C)(C)C2)c2cn[nH]c2c1` [Compound 145], the IC50 is 3.24 to 31.6 µM in assay [1] and < 3.16 µM in assay [2].

For the compound `CC1CN(c2cc(Cl)cc3[nH]ncc23)CCN1S(C)(=O)=O` (centres unmarked) [Compound 73], the IC50 in assay [1] and in assay [2] was < 3.16 µM each time.

With `CC1(C)CN(c2cc(-c3ncco3)cc3[nH]ncc23)CCN1S(C)(=O)=O` [Compound 171], the IC50 is > 100 µM in assay [1] and 3.24 to 31.6 µM in assay [2].

As to `CN(C)C(=O)N1CCC(c2cc(Cl)cc3[nH]ncc23)CC1` [Compound 132], the results for the IC50 in assay [1] and in assay [2] were 3.24 to 31.6 µM and < 3.16 µM, respectively.

`CS(=O)(=O)N1CCC(Oc2cc(Cl)cc3c2cnn3CCO)CC1` [Compound 163]: the IC50 in assay [1] was 32.4 to 100 µM; in assay [2], > 100 µM.

Take `CS(=O)(=O)c1ccc(Nc2cc(Cl)cc3[nH]ncc23)cc1` [Compound 180]: the IC50 was 32.4 to 100 µM in assay [1] and 3.24 to 31.6 µM in assay [2].

`CS(=O)(=O)N1CCC(Oc2cc(Cl)cc3[nH]ncc23)CC1` [Compound 159]: the IC50 in assay [1] and in assay [2] was 3.24 to 31.6 µM each time.

For `NC(=O)N1CCC(c2cc(Cl)cc3[nH]ncc23)CC1` [Compound 168], the IC50 in assay [1] is 3.24 to 31.6 µM; in assay [2] it was < 3.16 µM.

Regarding `OC1CCCN(c2cc(Cl)cc3[nH]ncc23)C1` (centres unmarked) [Compound 125], the IC50 is 32.4 to 100 µM in assay [1] and < 3.16 µM in assay [2].

As for `CC(=O)N1CCC(Oc2cccc3[nH]ncc23)CC1` [Compound 53], the IC50 was < 3.16 µM in assay [1] and 3.24 to 31.6 µM in assay [2].

Consider `CC(=O)N1CCN(c2cc(Br)cc3[nH]ncc23)CC1(C)C` [Compound 90], for which the IC50 in assay [1] and in assay [2] was < 3.16 µM each time.

Turning to `O=C(CO)N1CCN(c2cc(Cl)cc3[nH]ncc23)CC1` [Compound 129], the results for the IC50 in assay [1] and in assay [2] were 3.24 to 31.6 µM and < 3.16 µM, respectively.

Take `CC(=O)N1CCN(c2cc(Cl)cc3c2cnn3C)CC1(C)C` [Compound 104]: the IC50 in assay [1] was 32.4 to 100 µM; in assay [2] it was 3.24 to 31.6 µM.

On to `OCCNc1cc(Cl)cc2[nH]ncc12` [Compound 142], for which the IC50 in assay [1] was > 100 µM; in assay [2], 3.24 to 31.6 µM.

With `CN1C(=O)NC2(CCN(c3cc(Cl)cc4[nH]ncc34)CC2)C1=O` [Compound 144], the IC50 in assay [1] and in assay [2] was < 3.16 µM in each case.

With `CNS(=O)(=O)N1CCN(c2cccc3[nH]ncc23)CC1` [Compound 24], the IC50 in assay [1] was 32.4 to 100 µM; in assay [2], 3.24 to 31.6 µM.

Regarding `O=S(=O)(c1ccccc1)N1CCN(c2cc(Cl)cc3[nH]ncc23)CC1` [Compound 55], the values for the IC50 in assay [1] and in assay [2] were 3.24 to 31.6 µM and < 3.16 µM, respectively.

With `COc1cc(N2CCN(S(C)(=O)=O)CC2)c2cn[nH]c2c1` [Compound 69], the IC50 in assay [1] was > 100 µM; in assay [2] it was 3.24 to 31.6 µM.

In the case of `O=C(C1COC1)N1CCN(c2cc(Cl)cc3[nH]ncc23)CC1` [Compound 204], the IC50 in assay [1] is > 100 µM; in assay [2], < 3.16 µM.

On to `Cc1ccc(C2CCN(S(C)(=O)=O)CC2)c2cn[nH]c12` [Compound 39], for which the figures for the IC50 in assay [1] and in assay [2] were 32.4 to 100 µM and > 100 µM, respectively.

On to `O=C(C1CC1)N1CCN(c2cc(Cl)cc3[nH]ncc23)CC1` [Compound 107], for which the values for the IC50 in assay [1] and in assay [2] were 3.24 to 31.6 µM and < 3.16 µM, respectively.

Turning to `COc1cc(N2CCN(C(C)=O)CC2)c2cn[nH]c2c1` [Compound 70], the figures for the IC50 in assay [1] and in assay [2] were > 100 µM and 3.24 to 31.6 µM, respectively.

`CC(C)S(=O)(=O)N1CCC(c2cc(Cl)cc3[nH]ncc23)CC1` [Compound 141]: the figures for the IC50 in assay [1] and in assay [2] were 3.24 to 31.6 µM and < 3.16 µM, respectively.
